Laboratory results taken from PMC6886798, “Expression of myeloid Src-family kinases is associated with poor prognosis in AML and influences Flt3-ITD kinase inhibitor acquired resistance” (PLoS ONE, 2019).

Assays:
PKNB(M.tuberculosis) = PKNB(M.tuberculosis) (Mycobacterium tuberculosis, UniProt P9WI81); details: 1.0 µM
Description: (§1) Kinase retention to the immobilized ligand is then measured using quantitative real-time PCR for each kinase-specific DNA barcode.

CDC2L5 = CDC2L5 (Homo sapiens, UniProt Q14004); details: 1.0 µM
Chain of CDC2L5 (Q14004 whole entry): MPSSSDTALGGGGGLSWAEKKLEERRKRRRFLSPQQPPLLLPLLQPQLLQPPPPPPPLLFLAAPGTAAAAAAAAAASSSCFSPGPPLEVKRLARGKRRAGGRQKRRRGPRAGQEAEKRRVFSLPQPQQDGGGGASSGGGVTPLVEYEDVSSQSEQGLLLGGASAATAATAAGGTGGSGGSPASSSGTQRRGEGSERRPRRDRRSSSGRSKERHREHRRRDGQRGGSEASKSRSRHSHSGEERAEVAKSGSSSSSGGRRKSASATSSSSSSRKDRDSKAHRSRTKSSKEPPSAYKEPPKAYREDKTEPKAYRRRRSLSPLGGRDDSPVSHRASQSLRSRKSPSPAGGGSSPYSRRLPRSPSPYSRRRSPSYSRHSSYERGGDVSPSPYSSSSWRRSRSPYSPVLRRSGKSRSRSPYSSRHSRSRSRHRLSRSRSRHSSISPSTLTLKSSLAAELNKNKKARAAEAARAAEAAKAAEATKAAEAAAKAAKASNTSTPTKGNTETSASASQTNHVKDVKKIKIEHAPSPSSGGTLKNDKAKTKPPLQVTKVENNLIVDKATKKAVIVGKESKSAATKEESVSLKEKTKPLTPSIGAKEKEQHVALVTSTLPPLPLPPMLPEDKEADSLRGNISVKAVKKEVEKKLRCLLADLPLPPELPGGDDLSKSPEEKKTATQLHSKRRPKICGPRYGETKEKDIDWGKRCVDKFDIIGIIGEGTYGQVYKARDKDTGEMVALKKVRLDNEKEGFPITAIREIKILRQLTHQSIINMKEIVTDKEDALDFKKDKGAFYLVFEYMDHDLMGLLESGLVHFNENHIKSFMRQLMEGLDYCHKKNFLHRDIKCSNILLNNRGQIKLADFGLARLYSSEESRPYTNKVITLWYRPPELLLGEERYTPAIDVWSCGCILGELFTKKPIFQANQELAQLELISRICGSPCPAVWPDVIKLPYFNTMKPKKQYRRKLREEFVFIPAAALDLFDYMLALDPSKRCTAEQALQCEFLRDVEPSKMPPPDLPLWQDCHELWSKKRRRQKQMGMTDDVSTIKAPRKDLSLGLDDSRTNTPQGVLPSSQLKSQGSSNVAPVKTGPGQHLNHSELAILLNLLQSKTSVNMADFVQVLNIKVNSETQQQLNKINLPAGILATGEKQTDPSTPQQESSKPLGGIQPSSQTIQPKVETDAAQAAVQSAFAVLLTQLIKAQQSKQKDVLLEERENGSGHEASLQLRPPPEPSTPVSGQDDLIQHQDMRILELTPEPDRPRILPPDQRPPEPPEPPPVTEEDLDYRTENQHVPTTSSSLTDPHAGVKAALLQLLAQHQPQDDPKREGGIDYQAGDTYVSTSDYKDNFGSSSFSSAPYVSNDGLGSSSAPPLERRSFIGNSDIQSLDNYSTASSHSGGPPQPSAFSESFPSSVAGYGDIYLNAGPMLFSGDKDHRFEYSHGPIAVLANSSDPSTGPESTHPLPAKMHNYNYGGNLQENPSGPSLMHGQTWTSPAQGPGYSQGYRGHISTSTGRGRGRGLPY
Description: as §1

Hck T338L = biological target: T1, Hck T338L (Homo sapiens, UniProt P08631, T333L); experiment: Z'-LYTE in vitro kinase assay; assay type: biochemical
T1 construct: Recombinant near-full-length kinases, consisting of the SH2, SH3 and kinase domains plus the negative regulatory tail; made in house; host or cells: E. coli BL21Star (DE3), co-expressed with Csk and PTP1B
T1 sequence (P08631 78-526 T333L limits assumed): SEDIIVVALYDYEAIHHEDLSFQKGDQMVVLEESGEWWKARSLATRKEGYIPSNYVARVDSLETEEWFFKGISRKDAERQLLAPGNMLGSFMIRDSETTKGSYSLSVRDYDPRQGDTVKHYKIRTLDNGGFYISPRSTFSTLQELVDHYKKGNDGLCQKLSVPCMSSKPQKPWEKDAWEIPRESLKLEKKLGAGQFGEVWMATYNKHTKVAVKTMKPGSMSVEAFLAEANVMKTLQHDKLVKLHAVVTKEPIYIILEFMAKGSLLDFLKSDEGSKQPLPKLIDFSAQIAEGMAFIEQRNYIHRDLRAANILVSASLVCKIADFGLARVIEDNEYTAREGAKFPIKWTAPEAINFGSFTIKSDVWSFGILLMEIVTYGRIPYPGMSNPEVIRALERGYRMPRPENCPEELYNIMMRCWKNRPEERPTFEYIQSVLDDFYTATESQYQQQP

[1] = system: parental TF-1 cells (GM-CSF); experiment: CellTiter-Blue cell viability; assay type: cell-based, human; details: at 3.0 μM; 72 hours; in the presence of GM-CSF
Description: TF-1 and MV4-11 cells were obtained from the American Type Culture Collection (ATCC) and cultured in RPMI 1640 medium supplemented with 10% fetal bovine serum (FBS), 100 units/ml of penicillin, 100 μg/ml of streptomycin sulfate, and 0.25 μg/ml of amphotericin B (Antibiotic-Antimycotic; Gibco/ThermoFisher). Parental TF-1 cells also require recombinant human GM-CSF (1 ng/mL; ThermoFisher). MOLM13 and MOLM14 cells were obtained from Leibniz Institute Deutsche Sammlung von Mikroorganismen (DSMZ) and grown in RPMI 1640 medium containing 20% FBS and Antibiotic-Antimycotic. Human 293T cells were obtained from ATCC and cultured in Dulbecco's modified Eagle's medium (DMEM) containing 10% FBS and Antibiotic-Antimycotic.
Cells were seeded at 10^5 per mL in the presence or absence of inhibitors with DMSO as carrier solvent (0.1% final). Cell viability was assessed using the CellTiter-Blue reagent according to the manufacturer’s instructions (Promega). Fluorescence intensity, which correlates directly with viable cell number, was measured using a SpectraMax M5 microplate reader. Each experiment included three technical replicates per condition, and each experiment was repeated at least three times.

Fgr T338M = biological target: T2, Fgr T338M (Homo sapiens, UniProt P09769, T334M); experiment: Z'-LYTE in vitro kinase assay; assay type: biochemical
T2 construct: Recombinant near-full-length kinases, consisting of the SH2, SH3 and kinase domains plus the negative regulatory tail; made in house; host or cells: E. coli BL21Star (DE3), co-expressed with Csk and PTP1B
Description: (§2) Assays were performed in quadruplicate in 384-well low volume, non-binding, black polystyrene microplates (Corning) according to the manufacturer’s instructions. Briefly, this assay measures phosphorylation of the Tyr2 peptide substrate which is tagged with coumarin and fluorescein on its N- and C-termini, respectively, to form a FRET pair. After the kinase reaction, a development step involves site-specific proteolytic cleavage of the unphosphorylated but not the phosphorylated peptide. […] Kinase reactions were run in 50 mM HEPES, pH 7.5, 10 mM MgCl2, 1 mM EGTA, and 0.01% BRIJ-35 (buffer supplied by the manufacturer). […] Following incubation for 1 h at ambient temperature, reactions were quenched by addition of the development protease, and coumarin and fluorescein fluorescence were measured 1 h later on a Molecular Devices SpectraMax M5 plate reader. […] For experiments with inhibitors, compounds were preincubated with kinase for 30 min prior to initiation of the reaction by the addition of ATP.

[2] = system: Flt3-ITD N676S in TF-1 cells; experiment: Flt3 immunoprecipitation, anti-phosphotyrosine immunoblot; assay type: cell-based, human; details: vs Flt3-ITD; overnight
Description: Immunoprecipitation reactions were incubated overnight at 4 °C.

Fgr T338F = biological target: T3, Fgr T338F (Homo sapiens, UniProt P09769, T334F); experiment: Z'-LYTE in vitro kinase assay; assay type: biochemical
T3 construct: Recombinant near-full-length kinases, consisting of the SH2, SH3 and kinase domains plus the negative regulatory tail; made in house; host or cells: E. coli BL21Star (DE3), co-expressed with Csk and PTP1B
Description: as §2

Lyn T338L = biological target: T4, Lyn T338L (Homo sapiens, UniProt P07948, T319L); experiment: Z'-LYTE in vitro kinase assay; assay type: biochemical; details: read-out: A-419259 IC50, Fig 5B, ATP at Km, mean ± SE, three independent determinations
T4 construct: Recombinant near-full-length kinases, consisting of the SH2, SH3 and kinase domains plus the negative regulatory tail; made in house; host or cells: E. coli BL21Star (DE3), co-expressed with Csk and PTP1B
T4 sequence (P07948 63-512 T319L limits assumed): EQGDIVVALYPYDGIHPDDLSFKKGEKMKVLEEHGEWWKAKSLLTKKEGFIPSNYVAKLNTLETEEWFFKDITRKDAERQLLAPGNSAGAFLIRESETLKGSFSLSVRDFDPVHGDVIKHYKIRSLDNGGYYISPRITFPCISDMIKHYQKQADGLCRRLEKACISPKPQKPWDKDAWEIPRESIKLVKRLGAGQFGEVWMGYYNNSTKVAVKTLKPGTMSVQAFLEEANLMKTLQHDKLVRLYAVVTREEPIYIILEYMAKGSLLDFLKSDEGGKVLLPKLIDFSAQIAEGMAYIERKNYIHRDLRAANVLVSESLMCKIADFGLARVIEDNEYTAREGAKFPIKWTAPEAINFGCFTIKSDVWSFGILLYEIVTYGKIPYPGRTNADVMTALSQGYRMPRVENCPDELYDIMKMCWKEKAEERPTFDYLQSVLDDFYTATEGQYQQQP

Hck T338M = biological target: T5, Hck T338M (Homo sapiens, UniProt P08631, T333M); experiment: Z'-LYTE in vitro kinase assay; assay type: biochemical
T5 construct: Recombinant near-full-length kinases, consisting of the SH2, SH3 and kinase domains plus the negative regulatory tail; made in house; host or cells: E. coli BL21Star (DE3), co-expressed with Csk and PTP1B
T5 sequence (P08631 78-526 T333M limits assumed): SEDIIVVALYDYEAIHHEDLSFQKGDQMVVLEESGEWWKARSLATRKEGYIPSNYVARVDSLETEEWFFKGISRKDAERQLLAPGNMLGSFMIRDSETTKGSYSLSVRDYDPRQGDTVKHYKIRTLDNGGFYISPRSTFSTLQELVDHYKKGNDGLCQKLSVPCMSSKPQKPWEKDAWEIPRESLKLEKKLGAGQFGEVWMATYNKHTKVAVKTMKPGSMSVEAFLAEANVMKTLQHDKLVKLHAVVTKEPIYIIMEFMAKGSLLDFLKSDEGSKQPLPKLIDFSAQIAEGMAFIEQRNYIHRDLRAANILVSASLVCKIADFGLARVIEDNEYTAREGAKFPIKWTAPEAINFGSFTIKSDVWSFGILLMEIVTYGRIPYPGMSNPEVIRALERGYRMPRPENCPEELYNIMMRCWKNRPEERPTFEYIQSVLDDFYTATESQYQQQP

Chain of PKNB(M.tuberculosis) (P9WI81 whole entry): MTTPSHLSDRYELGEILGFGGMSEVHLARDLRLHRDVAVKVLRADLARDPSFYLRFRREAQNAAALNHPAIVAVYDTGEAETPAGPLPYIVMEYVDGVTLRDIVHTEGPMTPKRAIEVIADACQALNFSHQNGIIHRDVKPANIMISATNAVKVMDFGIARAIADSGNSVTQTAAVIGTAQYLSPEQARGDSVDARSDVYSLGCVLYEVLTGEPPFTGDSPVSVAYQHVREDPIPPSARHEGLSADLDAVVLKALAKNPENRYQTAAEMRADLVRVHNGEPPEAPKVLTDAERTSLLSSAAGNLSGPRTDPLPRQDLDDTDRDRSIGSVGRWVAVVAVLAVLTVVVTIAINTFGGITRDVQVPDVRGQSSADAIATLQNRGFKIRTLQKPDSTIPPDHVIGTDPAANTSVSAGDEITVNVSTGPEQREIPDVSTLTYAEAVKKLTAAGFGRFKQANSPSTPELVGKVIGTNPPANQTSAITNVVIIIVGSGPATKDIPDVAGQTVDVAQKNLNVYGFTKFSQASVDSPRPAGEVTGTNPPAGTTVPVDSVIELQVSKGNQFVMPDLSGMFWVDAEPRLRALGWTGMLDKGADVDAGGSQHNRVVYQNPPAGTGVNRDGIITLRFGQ

## CN1CCN(C2CCC(n3cc(-c4ccc(Oc5ccccc5)cc4)c4c(N)ncnc43)CC2)CC1 (stereo not shown) [A-419259]
PKNB(M.tuberculosis)
  % Control: 82%
CDC2L5
  % Control: 77%
Hck T338L; Hck gatekeeper threonine to leucine, vs wild-type
  effect of substitution on kinase sensitivity to A-419259: without an effect
Hck T338L; read-out: A-419259 IC50, Fig 5B, Hck T338L, ATP at Km, mean ± SE, three independent determinations
  IC50: 41 ± 1 nM
[1]
  growth inhibition: less than 20%
Fgr T338M; Fgr gatekeeper methionine substitution, vs wild-type
  resistance to A-419259: 2.5 fold
Fgr T338M; read-out: A-419259 IC50, Fig 5B, Fgr T338M, ATP at Km, mean ± SE, three independent determinations
  IC50: 160.6 ± 1.1 nM
[2]
  sensitivity of phosphotyrosine content to A-419259: significantly reduced sensitivity
Fgr T338F; Fgr gatekeeper phenylalanine substitution, vs wild-type
  resistance to A-419259: ~5 fold
Fgr T338F; read-out: A-419259 IC50, Fig 5B, Fgr T338F, ATP at Km, mean ± SE, three independent determinations
  IC50: 282.9 ± 1.1 nM
Lyn T338L
  IC50: 129.7 ± 1.1 nM
Hck T338M; Hck gatekeeper threonine to methionine, vs wild-type
  reduction of kinase sensitivity to A-419259: 2 fold
Hck T338M; read-out: A-419259 IC50, Fig 5B, Hck T338M, ATP at Km, mean ± SE, three independent determinations
  IC50: 94.9 ± 1.1 nM
